Converted amounts (≈) assume the structure as drawn. The source made the active and inactive calls. No cut-off for these calls is given here.
What was measured:
[1] = MRT in Sprague-Dawley rat at 15 mg/kg, po; assay type: ADME, organism-based; conditions: in vivo
HL-60 = experiment: Antiproliferative activity against human […] assessed as cell growth inhibition measured for 72 hrs by MTT assay; assay type: functional, cell-based; conditions: HL-60, 72 h
[2] = Metabolic stability in Crab eating monkey liver microsome assessed as intrinsic clearance measured upto 60 min by UPLC-MS/MS analysis; assay type: ADME, Macaca fascicularis; conditions: cynomolgus monkey, microsomes, 1 h
MV4-11 [3] = experiment: Induction of cell cycle arrest in human MV4-11 cells assessed as accumulation at S phase at 0.1 to 10 uM incubated for 24 hrs by PI/RNase staining based flow cytometry analysis; assay type: functional; conditions: dose 0.1-10 µM
MV4-11 [4] = experiment: Induction of apoptosis in human MV4-11 cells incubated for 24 hrs by annexinV/PI staining based flow cytometry analysis; assay type: functional, cell-based; conditions: dose 0.1-10 µM, DDE = dose-dependent effect
[5] = Cmax in Sprague-Dawley rat at 15 mg/kg, po; assay type: ADME, organism-based; parameters: dose 15 mg/kg, route po; conditions: in vivo
[6] = Metabolic stability in Sprague-Dawley rat liver microsome assessed as intrinsic clearance measured upto 60 min by UPLC-MS/MS analysis; assay type: ADME; conditions: microsomes, 1 h
MV4-11 [7] = experiment: Downregulation of MEISI gene in human MV4-11 cells incubated for 24 hrs by real-time PCR analysis; assay type: functional, cell-based; conditions: dose 0.1-10 µM, DDE = dose-dependent effect
[8] = Half life in Sprague-Dawley rat at 5 mg/kg, iv; assay type: ADME, organism-based; conditions: in vivo
[9] = Metabolic stability in CD-1 mouse liver microsome assessed as half life measured upto 60 min by UPLC-MS/MS analysis; assay type: ADME; conditions: liver microsomes
[10] = Cmax in Sprague-Dawley rat at 5 mg/kg, iv; assay type: ADME, organism-based; parameters: dose 5 mg/kg, route iv; conditions: in vivo
Homo sapiens [11] = species: Homo sapiens; experiment: Inhibition of CMGC (unknown origin) at 1 uM in presence of ATP at Km concentration by Mobility shift assay relative to control
Homo sapiens [12] = species: Homo sapiens; experiment: Inhibition of GAMK (unknown origin) at 1 uM in presence of ATP at Km concentration by Mobility shift assay relative to control
[13] = Metabolic stability in human liver assessed as intrinsic clearance measured upto 60 min by UPLC-MS/MS analysis; assay type: ADME, tissue-based; conditions: read-out: CLH
MV4-11 [14] = experiment: Suppression of MEIS1 gene transcription in human MV4-11 cells xenografted in BALB/c nude mouse at 15 mg/kg, iv measured after 24 hrs by RT-PCR analysis; assay type: functional, organism-based
MV4-11 [15] = experiment: Induction of cell differentiation in human MV4-11 cells assessed as increase in CD11b expression at 10 uM measured after 7 days by flow cytometric analysis; assay type: functional, cell-based; conditions: time 7.0 day
[16] = Metabolic stability in Crab eating monkey liver microsome assessed as half life measured upto 60 min by UPLC-MS/MS analysis; assay type: ADME, Macaca fascicularis; conditions: cynomolgus monkey, liver microsomes
MV4-11 [17] = experiment: Induction of cell cycle arrest in human MV4-11 cells assessed as accumulation at G2/M phase at 0.1 to 10 uM incubated for 24 hrs by PI/RNase staining based flow cytometry analysis; assay type: functional; conditions: dose 0.1-10 µM
MV4-11 [18] = experiment: Antiproliferative activity against human MV4-11 cells assessed as reduction in cell viability measured for 3 days followed by replacement with fresh medium of compound and measured after 72 hrs by cell counting assay; assay type: functional, cell-based; conditions: MV4-11, 72 h
[19] = Volume of distribution at steady state in Sprague-Dawley rat at 15 mg/kg, po; assay type: ADME, organism-based; conditions: in vivo
[20] = Solubility of compound in phosphate buffer at pH 7.4 by spectrophotometric analysis; assay type: physicochemical
Homo sapiens [21] = species: Homo sapiens; experiment: Inhibition of STE (unknown origin) at 1 uM in presence of ATP at Km concentration by Mobility shift assay relative to control
[22] = AUC (0 to infinity) in Sprague-Dawley rat at 5 mg/kg, iv; assay type: ADME, organism-based; parameters: time infinity, dose 5 mg/kg, route iv; conditions: in vivo
[23] = Half life in Sprague-Dawley rat at 15 mg/kg, po; assay type: ADME, organism-based; conditions: in vivo
[24] = Tmax in Sprague-Dawley rat at 15 mg/kg, po; assay type: ADME, organism-based; conditions: in vivo
MV4-11 [25] = experiment: Antitumor activity against human MV4-11 cells xenografted in BALB/c nude mouse assessed as tumor growth inhibition at 30 mg/kg, po administered every second day for 16 days by calipers analysis; assay type: functional; conditions: MV4-11, 384 h, time 16 day, read-out: TGI
[26] = molecular target: Casein kinase I (Homo sapiens) (UniProt Q9HCP0+P78368+P48730+P49674+P48729); experiment: Inhibition of CK1 (unknown origin) at 1 uM in presence of ATP at Km concentration by Mobility shift assay relative to control; assay type: protein assay
[27] = Metabolic stability in CD-1 mouse liver assessed as intrinsic clearance measured upto 60 min by UPLC-MS/MS analysis; assay type: ADME, tissue-based; conditions: read-out: CLH
[28] = molecular target: Menin/Histone-lysine N-methyltransferase MLL (Homo sapiens, UniProt O00255); experiment: Inhibition of Menin/fluorescein labeled MLL(4 to 43 residues) (unknown origin) protein protein interaction incubated for 1 hr by fluorescence polarization-based competitive binding assay
MV4-11 [29] = experiment: Antitumor activity against human MV4-11 cells xenografted in BALB/c nude mouse assessed as tumor growth inhibition at 6 mg/kg, po administered every second day for 16 days by calipers analysis; assay type: functional; conditions: MV4-11, 384 h, time 16 day, read-out: TGI
[30] = Metabolic stability in Sprague-Dawley rat liver assessed as intrinsic clearance measured upto 60 min by UPLC-MS/MS analysis; assay type: ADME, tissue-based; conditions: read-out: CLH
[31] = Metabolic stability in CD-1 mouse liver microsome assessed as intrinsic clearance measured upto 60 min by UPLC-MS/MS analysis; assay type: ADME; conditions: microsomes, 1 h
[32] = Metabolic stability in Beagle dog liver microsome assessed as compound remaining measured after 60 min by UPLC-MS/MS analysis; assay type: ADME, Canis lupus familiaris; conditions: liver microsomes, read-out: Stability
MV4-11 [33] = experiment: Reversible differentiation arrest in human MV4-11 cells at 0.1 to 10 uM measured after 7 days by flow cytometric analysis; assay type: functional, cell-based; conditions: dose 0.1-10 µM, time 7.0 day
[34] = Metabolic stability in human liver microsome assessed as half life measured upto 60 min by UPLC-MS/MS analysis; assay type: ADME; conditions: liver microsomes
MV4-11 [35] = experiment: Antiproliferative activity against human MV4-11 cells assessed as reduction in cell viability measured for 3 days by cell counting assay; assay type: functional, cell-based; conditions: MV4-11, 72 h
[36] = Metabolic stability in Sprague-Dawley rat liver microsome assessed as half life measured upto 60 min by UPLC-MS/MS analysis; assay type: ADME; conditions: liver microsomes
[37] = Metabolic stability in Sprague-Dawley rat liver microsome assessed as compound remaining measured after 60 min by UPLC-MS/MS analysis; assay type: ADME; conditions: liver microsomes, read-out: Stability
[38] = Total clearance in Sprague-Dawley rat at 15 mg/kg, po; assay type: ADME, organism-based; conditions: in vivo
[39] = Metabolic stability in Beagle dog liver assessed as intrinsic clearance measured upto 60 min by UPLC-MS/MS analysis; assay type: ADME, tissue-based, Canis lupus familiaris; conditions: read-out: CLH
[40] = Metabolic stability in CD-1 mouse liver microsome assessed as compound remaining measured after 60 min by UPLC-MS/MS analysis; assay type: ADME; conditions: liver microsomes, read-out: Stability
Homo sapiens [41] = species: Homo sapiens; experiment: Inhibition of AGC (unknown origin) at 1 uM in presence of ATP at Km concentration by Mobility shift assay relative to control
[42] = Metabolic stability in human liver microsome assessed as compound remaining measured after 60 min by UPLC-MS/MS analysis; assay type: ADME; conditions: liver microsomes, read-out: Stability
MV4-11 [43] = experiment: Antiproliferative activity against human MV4-11 cells harboring MLL-AF4 assessed as cell growth inhibition measured for 72 hrs by MTT assay; assay type: functional, cell-based; conditions: MV4-11, 72 h
[44] = AUC (0 to infinity) in Sprague-Dawley rat at 15 mg/kg, po; assay type: ADME, organism-based; parameters: time infinity, dose 15 mg/kg, route po; conditions: in vivo

Chain of Menin/Histone-lysine N-methyltransferase MLL (O00255 whole entry, the tested form may be a part): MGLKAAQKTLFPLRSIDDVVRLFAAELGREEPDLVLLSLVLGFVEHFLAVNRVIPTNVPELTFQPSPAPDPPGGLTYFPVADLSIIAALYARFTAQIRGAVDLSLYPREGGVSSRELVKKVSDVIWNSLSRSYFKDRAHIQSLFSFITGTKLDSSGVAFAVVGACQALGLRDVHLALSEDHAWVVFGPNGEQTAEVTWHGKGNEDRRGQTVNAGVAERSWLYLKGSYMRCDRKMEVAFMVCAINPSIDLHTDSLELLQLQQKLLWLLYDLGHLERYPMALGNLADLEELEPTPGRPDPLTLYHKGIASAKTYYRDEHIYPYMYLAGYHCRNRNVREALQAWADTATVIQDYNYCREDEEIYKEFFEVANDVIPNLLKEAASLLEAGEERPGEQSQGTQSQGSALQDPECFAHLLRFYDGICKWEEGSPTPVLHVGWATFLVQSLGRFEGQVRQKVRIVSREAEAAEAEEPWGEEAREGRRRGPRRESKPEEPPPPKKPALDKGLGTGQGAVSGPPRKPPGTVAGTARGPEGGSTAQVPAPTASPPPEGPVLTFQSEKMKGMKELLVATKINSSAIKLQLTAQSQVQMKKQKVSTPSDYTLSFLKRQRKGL
Chain of Menin/Histone-lysine N-methyltransferase MLL (Q03164 1-2718 partner limits assumed): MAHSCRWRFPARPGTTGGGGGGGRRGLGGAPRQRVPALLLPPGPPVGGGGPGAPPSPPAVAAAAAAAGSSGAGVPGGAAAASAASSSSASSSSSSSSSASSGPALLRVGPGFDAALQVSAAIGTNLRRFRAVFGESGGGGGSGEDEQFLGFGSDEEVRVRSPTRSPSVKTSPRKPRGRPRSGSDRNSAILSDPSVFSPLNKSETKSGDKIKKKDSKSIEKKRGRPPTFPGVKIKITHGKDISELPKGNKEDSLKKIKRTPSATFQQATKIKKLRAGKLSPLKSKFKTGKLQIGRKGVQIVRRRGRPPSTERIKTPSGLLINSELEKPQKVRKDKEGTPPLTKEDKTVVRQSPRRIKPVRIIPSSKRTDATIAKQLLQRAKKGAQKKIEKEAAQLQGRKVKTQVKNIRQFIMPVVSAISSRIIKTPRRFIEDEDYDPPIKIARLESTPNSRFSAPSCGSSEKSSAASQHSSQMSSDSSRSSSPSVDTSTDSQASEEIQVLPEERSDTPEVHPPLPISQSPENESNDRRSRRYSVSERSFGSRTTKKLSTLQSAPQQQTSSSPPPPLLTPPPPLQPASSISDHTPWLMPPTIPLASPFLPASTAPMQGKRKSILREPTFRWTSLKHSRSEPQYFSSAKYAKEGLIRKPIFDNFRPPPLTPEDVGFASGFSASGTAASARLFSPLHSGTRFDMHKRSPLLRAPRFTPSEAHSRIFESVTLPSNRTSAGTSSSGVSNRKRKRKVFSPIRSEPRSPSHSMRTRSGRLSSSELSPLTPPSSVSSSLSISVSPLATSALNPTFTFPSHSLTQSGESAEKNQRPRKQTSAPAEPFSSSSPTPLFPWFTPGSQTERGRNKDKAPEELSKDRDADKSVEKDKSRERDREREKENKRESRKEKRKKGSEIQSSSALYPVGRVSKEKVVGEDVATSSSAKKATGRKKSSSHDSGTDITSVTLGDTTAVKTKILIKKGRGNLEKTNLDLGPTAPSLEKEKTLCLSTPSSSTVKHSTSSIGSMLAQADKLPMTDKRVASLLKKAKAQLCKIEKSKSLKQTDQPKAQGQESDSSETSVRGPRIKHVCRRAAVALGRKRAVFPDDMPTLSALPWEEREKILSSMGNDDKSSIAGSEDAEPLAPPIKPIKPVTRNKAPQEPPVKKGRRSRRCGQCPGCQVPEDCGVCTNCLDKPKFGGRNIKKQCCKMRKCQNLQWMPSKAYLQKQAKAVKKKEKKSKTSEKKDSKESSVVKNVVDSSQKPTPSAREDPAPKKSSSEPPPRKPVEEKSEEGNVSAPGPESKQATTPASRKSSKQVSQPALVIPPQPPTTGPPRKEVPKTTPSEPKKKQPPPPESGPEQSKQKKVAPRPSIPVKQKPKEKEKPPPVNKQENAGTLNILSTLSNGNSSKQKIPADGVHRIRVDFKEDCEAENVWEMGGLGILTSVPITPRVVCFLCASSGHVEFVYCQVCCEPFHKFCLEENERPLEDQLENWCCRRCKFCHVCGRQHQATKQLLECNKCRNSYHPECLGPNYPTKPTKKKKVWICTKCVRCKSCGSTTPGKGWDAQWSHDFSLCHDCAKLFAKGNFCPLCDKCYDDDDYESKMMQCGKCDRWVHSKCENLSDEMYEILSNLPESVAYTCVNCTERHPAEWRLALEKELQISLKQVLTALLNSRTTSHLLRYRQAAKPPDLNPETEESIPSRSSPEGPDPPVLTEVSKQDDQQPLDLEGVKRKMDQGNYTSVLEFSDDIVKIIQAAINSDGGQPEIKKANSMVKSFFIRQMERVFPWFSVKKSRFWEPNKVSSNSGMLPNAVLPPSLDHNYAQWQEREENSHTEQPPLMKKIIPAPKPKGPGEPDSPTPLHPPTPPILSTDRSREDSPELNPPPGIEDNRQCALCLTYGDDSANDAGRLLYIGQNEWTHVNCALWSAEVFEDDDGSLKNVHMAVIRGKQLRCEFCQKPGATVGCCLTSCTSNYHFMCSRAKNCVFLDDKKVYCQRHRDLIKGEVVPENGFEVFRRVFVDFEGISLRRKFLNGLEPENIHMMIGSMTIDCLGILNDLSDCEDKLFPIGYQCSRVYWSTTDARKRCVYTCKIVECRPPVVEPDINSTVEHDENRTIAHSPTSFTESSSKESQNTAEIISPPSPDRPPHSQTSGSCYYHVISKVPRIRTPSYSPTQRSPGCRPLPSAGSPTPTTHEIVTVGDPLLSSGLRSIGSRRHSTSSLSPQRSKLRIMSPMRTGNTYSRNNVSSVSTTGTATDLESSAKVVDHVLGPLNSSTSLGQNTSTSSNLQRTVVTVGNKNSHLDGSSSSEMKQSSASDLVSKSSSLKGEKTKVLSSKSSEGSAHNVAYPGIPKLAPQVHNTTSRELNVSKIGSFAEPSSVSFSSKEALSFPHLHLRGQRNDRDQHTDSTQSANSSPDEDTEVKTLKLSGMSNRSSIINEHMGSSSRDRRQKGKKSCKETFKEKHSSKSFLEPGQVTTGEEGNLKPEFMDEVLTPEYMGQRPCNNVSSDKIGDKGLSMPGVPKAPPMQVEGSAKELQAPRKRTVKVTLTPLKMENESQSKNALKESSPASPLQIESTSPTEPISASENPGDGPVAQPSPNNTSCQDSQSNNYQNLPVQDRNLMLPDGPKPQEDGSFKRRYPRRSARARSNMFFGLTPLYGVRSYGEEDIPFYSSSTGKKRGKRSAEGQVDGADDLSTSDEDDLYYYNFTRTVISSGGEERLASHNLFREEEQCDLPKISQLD
Chain of Menin/Histone-lysine N-methyltransferase MLL (Q03164 2719-3969 partner limits assumed): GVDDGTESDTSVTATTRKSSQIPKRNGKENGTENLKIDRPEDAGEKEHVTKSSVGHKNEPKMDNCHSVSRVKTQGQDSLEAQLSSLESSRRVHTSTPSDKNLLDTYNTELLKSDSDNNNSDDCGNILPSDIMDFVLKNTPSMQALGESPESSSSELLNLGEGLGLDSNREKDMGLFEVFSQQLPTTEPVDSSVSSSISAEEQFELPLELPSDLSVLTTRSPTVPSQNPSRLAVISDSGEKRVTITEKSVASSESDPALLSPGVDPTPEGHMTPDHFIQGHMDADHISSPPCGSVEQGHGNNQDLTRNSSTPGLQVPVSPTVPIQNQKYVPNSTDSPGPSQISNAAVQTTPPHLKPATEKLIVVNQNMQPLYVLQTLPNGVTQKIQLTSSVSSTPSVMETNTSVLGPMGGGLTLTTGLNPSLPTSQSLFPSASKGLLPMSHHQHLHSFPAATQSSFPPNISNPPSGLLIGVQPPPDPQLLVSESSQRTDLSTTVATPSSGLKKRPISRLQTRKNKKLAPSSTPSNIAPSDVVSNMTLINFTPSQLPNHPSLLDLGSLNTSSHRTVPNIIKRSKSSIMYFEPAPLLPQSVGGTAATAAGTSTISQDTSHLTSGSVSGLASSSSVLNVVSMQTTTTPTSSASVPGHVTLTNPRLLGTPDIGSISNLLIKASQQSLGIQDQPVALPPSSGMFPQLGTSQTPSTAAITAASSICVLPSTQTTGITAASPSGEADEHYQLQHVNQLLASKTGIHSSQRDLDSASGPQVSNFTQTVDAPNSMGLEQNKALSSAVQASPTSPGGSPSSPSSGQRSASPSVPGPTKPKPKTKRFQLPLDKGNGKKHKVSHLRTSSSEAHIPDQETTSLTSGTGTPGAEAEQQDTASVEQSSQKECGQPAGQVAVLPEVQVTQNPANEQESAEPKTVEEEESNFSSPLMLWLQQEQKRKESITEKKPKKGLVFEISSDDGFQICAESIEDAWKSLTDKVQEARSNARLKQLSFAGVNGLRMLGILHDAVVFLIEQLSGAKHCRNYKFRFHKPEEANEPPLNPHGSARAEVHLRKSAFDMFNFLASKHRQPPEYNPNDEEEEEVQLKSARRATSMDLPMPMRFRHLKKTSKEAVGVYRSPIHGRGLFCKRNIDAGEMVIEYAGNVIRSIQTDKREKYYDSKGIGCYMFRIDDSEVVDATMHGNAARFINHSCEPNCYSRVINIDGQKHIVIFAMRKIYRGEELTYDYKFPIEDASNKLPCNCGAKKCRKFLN

Structure (SMILES): CN(C)CCOc1ccc2ncnc(NC3CCN(CC4CN(c5ccc(S(=O)(=O)C6CC6)cc5)C4)CC3)c2n1
- MRT [1]: 12 h
- IC50 (HL-60): > 10000 nM
- CLint [2]: 22 µL/min/mg
- Activity (MV4-11 [3]): Active
- Activity (MV4-11 [4]): Dde
- Cmax [5]: 56.7 ng/mL
- CLint [6]: 9.7 µL/min/mg
- Activity (MV4-11 [7]): Dde
- half-life [8]: 17.5 h
- half-life [9]: 3.38 h
- Cmax [10]: 1190 ng/mL
- inhibition (Homo sapiens [11]): < 25%
- inhibition (Homo sapiens [12]): < 25%
- CLint scaled [13]: 8 mL/min/kg
- Activity (MV4-11 [14]): Active
- Activity (MV4-11 [15]): Active
- half-life [16]: 1.08 h
- Activity (MV4-11 [17]): Active
- IC50 (MV4-11 [18]): 300 nM
- Vdss [19]: 23 L/kg
- solubility [20]: 398 µg/mL (≈ 704 µM)
- inhibition (Homo sapiens [21]): < 25%
- AUC(0-inf) [22]: 2500 ng·h/mL
- half-life [23]: 15.5 h
- Tmax [24]: 7.3 h
- inhibition in vivo at 30 mg/kg (MV4-11 [25]): 97%
- inhibition [26]: < 25%
- CLint scaled [27]: 28.2 mL/min/kg
- IC50 [28]: 7 nM
- inhibition in vivo at 6 mg/kg (MV4-11 [29]): 64%
- CLint scaled [30]: 17.5 mL/min/kg
- CLint [31]: 7.2 µL/min/mg
- remaining at 1 h [32]: 65%
- Activity (MV4-11 [33]): Active
- half-life [34]: 3.2 h
- IC50 (MV4-11 [35]): 360 nM
- half-life [36]: 2.75 h
- remaining at 1 h [37]: 77%
- CL/F [38]: 179 mL/min/kg
- CLint scaled [39]: 20 mL/min/kg
- remaining at 1 h [40]: 82%
- inhibition (Homo sapiens [41]): < 25%
- remaining at 1 h [42]: 79%
- IC50 (MV4-11 [43]): 300 nM
- AUC(0-inf) [44]: 1480 ng·h/mL

Reference: ChEMBL document CHEMBL5104196, “Discovery of Novel, Potent, and Selective Small-Molecule Menin-Mixed Lineage Leukemia Interaction Inhibitors through Attempting Introduction of Hydrophilic Groups” (J Med Chem, 2022)
